{"source": "paper PMC10101490", "about": "(The Journal of Biological Chemistry, 2023)", "biological_target": "α7 nAChR (Homo sapiens, UniProt P36544)", "sequence (P36544 23-502 limits assumed)": "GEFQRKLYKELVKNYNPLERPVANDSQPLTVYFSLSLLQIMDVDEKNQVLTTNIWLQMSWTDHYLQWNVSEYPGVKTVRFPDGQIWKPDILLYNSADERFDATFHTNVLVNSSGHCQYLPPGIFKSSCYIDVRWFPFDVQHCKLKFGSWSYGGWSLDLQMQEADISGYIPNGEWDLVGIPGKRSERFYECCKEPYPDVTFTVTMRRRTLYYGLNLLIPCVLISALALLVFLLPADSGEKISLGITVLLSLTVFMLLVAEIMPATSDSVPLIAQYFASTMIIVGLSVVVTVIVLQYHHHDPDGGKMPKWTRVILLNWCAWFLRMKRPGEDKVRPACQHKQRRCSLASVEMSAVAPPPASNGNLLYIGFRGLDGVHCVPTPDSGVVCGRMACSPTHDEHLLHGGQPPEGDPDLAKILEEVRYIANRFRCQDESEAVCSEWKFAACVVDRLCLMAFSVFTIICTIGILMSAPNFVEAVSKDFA", "test": "cell-based", "set-up": "expressed in transfected cells; host or cells: Xenopus laevis oocytes injected with cRNA transcribed from α7-pSHE; species or system Human (expressed in Xenopus laevis oocytes)", "conditions": "Inhibition phase potency"}
{"smiles": "CC[C@H](C)[C@H](NC(=O)CNC(=O)[C@H](C)NC(=O)CNC(=O)[C@@H](NC(=O)[C@@H]1CCCN1C(=O)[C@@H](NC(=O)[C@H](CC(=O)O)NC(=O)[C@H](CS)NC(=O)[C@H](CCC(=O)O)NC(=O)[C@@H](N)Cc1ccc(O)cc1)[C@@H](C)CC)[C@@H](C)CC)C(=O)N[C@@H](CS)C(=O)N[C@@H](C)C(=O)N[C@@H](CO)C(=O)N[C@@H](Cc1ccc(O)cc1)C(=O)N[C@@H](CCC(N)=O)C(=O)N[C@H](C(=O)N[C@@H](CCC(N)=O)C(=O)N[C@H](C(=O)N[C@@H](CC(N)=O)C(=O)N[C@@H](CO)C(=O)N[C@@H](CCCNC(=N)N)C(=O)N[C@@H](CCCNC(=N)N)C(=O)N[C@@H](CCCNC(=N)N)C(=O)N[C@@H](C)C(=O)N[C@@H](CCCNC(=N)N)C(=O)N[C@@H](CO)C(=O)N[C@H](C(=O)N[C@@H](C)C(=O)N[C@@H](CO)C(=O)O)C(C)C)[C@@H](C)O)[C@@H](C)O", "note": "[delta SCoV2P]", "values": [{"measurement": "IC50", "value": 100, "unit": "µM"}]}
